Test results taken from patent US4005220A, “Hemostatic compositions comprising salts of substituted hydroquinone sulfonic acid” (Laboratorios del Dr. Esteve, S.A., priority 1973, dated 1977).
“Also recorded” adds a separate entry of the source.

Tests used:
[1] = Acute toxicity in mice, LD50 (method of Reed and Muench); type: in vivo; settings: mouse, in vivo, po
Protocol: (§1) 1. Acute toxicity in mice
(§2) Albino mice of 18 to 25 g. The LD50 was determined in accordance with the method of Reed and Muench.
(§3) The acute toxicity in mice was determined in accordance with the method of REED and MUENCH, in a modified form (Reed L. J. and Muench H., Am. J. Hyg., 27, 493, 1938). The effect on the average bleeding time was determined by the Roskam technique modified by Laporte (Laporte J., Chemotherapia, 3, 62, 1961).

mice = assay: as above; type: in vivo; settings: mice (summary table)
Protocol: as §1, §2, §3

[2] = Partition coefficient butanol/water
[3] = test system: average bleeding time (A.B.T.); assay: Effect on the average bleeding time (A.B.T.), Roskam technique modified by Laporte; type: in vivo; settings: one hour after administration, rabbits
Protocol: 2. Effect on the average bleeding time
as §3

[4] = test system: average bleeding time (A.B.T.); assay: Activity-time relationship of the decrease in the A.B.T.; type: in vivo, rabbits; settings: 5 micromols/kg
Excerpt: 3. Activity-time relationship

capillary permeability = assay: Protective effect on the capillaries: capillary permeability, BEACH-STEINITZ method in a modified form; type: in vivo; settings: intraperitoneally, mice; in words
Excerpt: 4. Protective effect on the capillaries

Q: Which LD50 [1] does the source give for `CC(C)(C)c1cc(O)c(S(=O)(=O)O)cc1O` [cyclohexylamine (tertiary butyl)-p-dihydroxybenzenesulphonate] here?
A: 1000 mg/kg

Q: Which LD50 (mice; i.v.) does the source give for “Ammonium (tertiary butyl)-p-dihydroxybenzenesulphonate” here?
A: 600 mg/kg

Q: And the Partition coefficient butanol/water [2]?
A: 0.42

Q: Which LD50 (mice; p.o.) does the source give for “Calcium (tertiary butyl)-p-dihydroxybenzenesulphonate” here?
A: 2,337 mg/kg

Q: And the Partition coefficient butanol/water [2]?
A: 1.36

Q: With “Diethylamine (tertiary butyl)-p-dihydroxybenzenesulphonate” as the molecule, how does the “Decrease in the A.B.T. in %” value ([3]; 0.625 micromols/kg) read?
A: 7%

Q: What about the “Decrease in the A.B.T. in %” value ([3]; 1.25 micromols/kg) of the same molecule?
A: 25%

Q: What about the “Decrease in the A.B.T. in %” value ([3]; 2.5 micromols/kg) of the same molecule?
A: 34%

Q: And the “Decrease in the A.B.T. in %” value ([3]; 5.0 micromols/kg)?
A: 42%

Q: What about the “Decrease in the A.B.T. in %” value ([3]; 7.05 (sic) micromols/kg) of the same molecule?
A: 49%

Q: What about the “Decrease in the A.B.T. in %” value ([3]; 10.0 micromols/kg) of the same molecule?
A: 55%

Q: What about the “% decrease in the A.B.T.” value ([4]; 1 hour after intravenous administration) of the same molecule?
A: 42%

Q: And the “% decrease in the A.B.T.” value ([4]; 2 hours after intravenous administration)?
A: 43.5%

Q: What about the “% decrease in the A.B.T.” value ([4]; 4 hours after intravenous administration) of the same molecule?
A: 41.0%

Q: And the “% decrease in the A.B.T.” value ([4]; 8 hours after intravenous administration)?
A: 34.8%

Q: And the “% decrease in the A.B.T.” value ([4]; 16 hours after intravenous administration)?
A: 33.0%

Q: And the “% decrease in the A.B.T.” value ([4]; 24 hours after intravenous administration)?
A: 22.5%

Q: What about the “% decrease in the A.B.T.” value ([4]; 48 hours after intravenous administration) of the same molecule?
A: 14.0%

Q: What about the duration of effect ([4]; in words) of the same molecule?
A: lasts for a long time; also recorded: lasts for a markedly longer time than the products already described hitherto

Q: What about the capillary permeability (capillary permeability) of the same molecule?
A: marked decrease in the capillary permeability

Q: What about the Partition coefficient butanol/water [2] of the same molecule?
A: 2.38

Q: Which LD50 (mice; p.o.) does the source give for “Sodium methyl-p-dihydroxybenzenesulphonate” here?
A: > 1,000 mg/kg

Q: What about the Partition coefficient butanol/water [2] of the same molecule?
A: 0.87

Q: Which LD50 (mice; i.v.) does the source give for “lithium (tertiary butyl)-p-dihydroxybenzenesulphonate” here?
A: 1,000 mg/kg

Q: What about the Partition coefficient butanol/water [2] of the same molecule?
A: 1.28
